In article PMC6022639, “A missense allele of KARRIKIN-INSENSITIVE2 impairs ligand-binding and downstream signaling in Arabidopsis thaliana” (Journal of Experimental Botany, 2018):

Experiments:
KAI2^ply2 (KAI2^A219V) = biological target: T1, KAI2^ply2 (KAI2^A219V) (Arabidopsis thaliana, UniProt Q9SZU7, A219V); test: ITC ([…] °C); strongly impaired binding, only marginal change in CPM assay
T1 construct: full-length, recombinant from E. coli, His tag removed

[1] = biological target: T2, KARRIKIN INSENSITIVE2 (KAI2) (Arabidopsis thaliana, UniProt Q9SZU7); test: ITC ([…] °C); supported by CPM thermal shift; type: binding
T2 construct: full-length, recombinant from E. coli, His tag removed
T2 sequence (Q9SZU7 1-270): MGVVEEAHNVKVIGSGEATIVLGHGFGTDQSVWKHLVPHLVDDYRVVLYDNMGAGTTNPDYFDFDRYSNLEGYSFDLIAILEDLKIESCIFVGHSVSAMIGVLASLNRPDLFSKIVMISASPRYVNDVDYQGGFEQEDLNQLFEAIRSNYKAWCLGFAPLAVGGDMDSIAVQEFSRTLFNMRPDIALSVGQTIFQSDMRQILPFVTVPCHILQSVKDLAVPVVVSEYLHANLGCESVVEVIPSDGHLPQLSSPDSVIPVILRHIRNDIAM

T1 sequence (Q9SZU7 whole entry A219V): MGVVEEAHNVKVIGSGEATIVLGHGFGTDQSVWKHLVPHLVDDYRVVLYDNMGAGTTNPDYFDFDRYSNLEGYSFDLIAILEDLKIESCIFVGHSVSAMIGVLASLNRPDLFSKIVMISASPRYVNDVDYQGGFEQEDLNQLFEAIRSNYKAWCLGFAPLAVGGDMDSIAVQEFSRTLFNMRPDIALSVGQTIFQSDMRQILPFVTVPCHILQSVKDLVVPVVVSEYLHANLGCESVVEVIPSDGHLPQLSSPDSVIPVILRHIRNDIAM

`Cc1c2ccocc-2oc1=O` [KAR1, 3-methyl-2H-furo[2,3-c]pyran-2-one] gave a Kd (KAI2^ply2 (KAI2^A219V)) of 2860 µM and a Kd [1] of 147 µM.
